Data set [1] concerns the target T1, wild-type nAChR α7 receptors (Homo sapiens, UniProt P36544).
T1 construct: expressed in transfected cells; host or cells: Xenopus laevis oocytes
Description: Positive modulation of acetylcholine-induced currents, two-electrode voltage clamp in Xenopus oocytes. It is filed as cell-based. The note with it: for maximal modulation of the acetylcholine (control) response (Imax) / EC50: 100 μM acetylcholine, nAChR α7 expressed in Xenopus laevis oocytes; for maximal modulation of the acetylcholine (control) response (Imax): (test-control)/control×100%; for EC50: clamped at −60 mV, compound 0.01-31.6 μM, read-out: EC50 for positive modulation of acetylcholine responses; for effect on acetylcholine-induced current amplitude: 0.01-31.6 μM compound applied 30 s before and during 100 μM acetylcholine application. The procedure: In this example the positive modulation of wild-type nAChR α7 receptors by Compound 1 (FIGS. 1A and 1B) and Compound 3 (FIGS. 2A and 2B) was determined using nAChR α7 receptors heterologously expressed in Xenopus laevis oocytes.
The electrical current through the nAChR α7 channel was measured using conventional two-electrode voltage clamp and nAChR α7 currents were activated by applying pulses of agonist-containing solution onto the nAChR α7 expressing oocyte. In brief, the oocytes were placed in a recording chambers and continuously superfused with an Oocyte Ringer (OR) solution containing 90 mM NaCl, 2.5 mM KCl, 2.5 mM CaCl2, 1 mM MgCl2 and 5 mM HEPES (pH adjusted to 7.4). The oocytes were clamped at −60 mV and currents were induced by applying 20 s pulses of 100 μM acetylcholine dissolved in OR. The intervals between the acetylcholine applications were 5 minutes, during which the oocytes were washed with OR. The first three applications were control applications to insure a constant response level of 100 μM acetylcholine.
The positive modulation in the presence of Compound 1 and Compound 3 was calculated as (test-control)/control×100% and the concentration response curve for this positive modulation was fitted to the sigmoidal logistic equation: I=Imax/(1+(EC50/[compound])^n), where Imax represents the maximal modulation of the control response, EC50 is the concentration causing a half maximal response, and n is the slope coefficient.
A general note: Two-electrode voltage clamp holds a large cell at a set potential and records current.

Experimental findings from patent publication US8110588B2, “1,2,3-triazole derivatives useful as modulators of nicotinic acetylcholine receptors” (Neurosearch A/S, priority 2007, dated 2012) are described below.

T1 sequence (P36544 23-502): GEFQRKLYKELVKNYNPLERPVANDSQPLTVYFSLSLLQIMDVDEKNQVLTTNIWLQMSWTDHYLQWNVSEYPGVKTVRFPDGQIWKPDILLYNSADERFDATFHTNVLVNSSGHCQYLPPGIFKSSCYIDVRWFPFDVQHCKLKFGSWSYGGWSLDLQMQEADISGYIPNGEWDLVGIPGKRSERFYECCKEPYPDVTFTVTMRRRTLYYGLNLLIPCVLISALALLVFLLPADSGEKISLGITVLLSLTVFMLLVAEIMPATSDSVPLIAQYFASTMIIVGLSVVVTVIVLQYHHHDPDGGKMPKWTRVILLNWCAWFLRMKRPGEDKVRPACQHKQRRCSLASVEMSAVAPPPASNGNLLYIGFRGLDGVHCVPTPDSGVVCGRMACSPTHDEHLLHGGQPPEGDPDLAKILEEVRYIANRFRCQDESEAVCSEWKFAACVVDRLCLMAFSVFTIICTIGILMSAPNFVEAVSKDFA

Regarding `COc1ccc(-n2nnc(-c3ccc(Cl)cc3C(F)(F)F)c2N)cc1` [Compound 23, 5-(4-Chloro-2-trifluoromethyl-phenyl)-3-(4-methoxy-phenyl)-3H-[1,2,3]triazol-4-ylamine], the melting point (commonly the temperature, or range, at which the solid turns liquid) was 159.2 to 160.2 °C.
Take `Nc1c(-c2ccc(O)cc2)nnn1-c1ccc(C(F)(F)F)cc1F` [Compound 15, 4-[5-Amino-1-(2-fluoro-4-trifluoromethyl-phenyl)-1H-[1,2,3]triazol-4-yl]-phenol]: the melting point lay in the range of 163.5 to 165.2 °C.
On the same count and under the same terms, for `COc1ccc(-n2nnc(-c3ccc(C(F)(F)F)cc3F)c2N)cc1` [Compound 16, 5-(2-Fluoro-4-trifluoromethyl-phenyl)-3-(4-methoxy-phenyl)-3H-[1,2,3]triazol-4-ylamine] the value was 164.6 to 165.5 °C; for `COc1ccc(Cl)cc1-c1nnn(-c2ccc(Cl)cc2Cl)c1N` [Compound 4, 5-(5-Chloro-2-methoxy-phenyl)-3-(2,4-dichloro-phenyl)-3H-[1,2,3]triazol-4-ylamine], 153.5 to 154.7 °C.
Same read-out and setting: for `Nc1c(-c2cc(Cl)ccc2O)nnn1-c1ccc(Cl)cc1Cl` [Compound 8, 2-[5-Amino-1-(2,4-dichloro-phenyl)-1H-[1,2,3]triazol-4-yl]-4-chloro-phenol] the value was 131.3 to 135.6 °C.
Compound `Nc1c(-c2cc(Cl)ccc2O)nnn1-c1ccc(C(F)(F)F)cc1Cl` [Compound 9, 2-[5-Amino-1-(2-chloro-4-trifluoromethyl-phenyl)-1H-[1,2,3]triazol-4-yl]-4-chloro-phenol] yielded a melting point of 74.5 to 77.5 °C.
On the same count and under the same terms, for `Nc1c(-c2ccc(O)cc2)nnn1-c1ccc(C(F)(F)F)cc1Cl` [Compound 21, 4-[5-Amino-1-(2-chloro-4-trifluoromethyl-phenyl)-1H-[1,2,3]triazol-4-yl]-phenol] the value was 161 to 162.3 °C; for `Nc1c(-c2ccc(OC(F)(F)F)cc2)nnn1-c1ccc(C(F)(F)F)cc1F` [Compound 19, 3-(2-Fluoro-4-trifluoromethyl-phenyl)-5-(4-trifluoromethoxy-phenyl)-3H-[1,2,3]triazol-4-ylamine], 134.2 to 134.9 °C; for `CC(=O)Nc1ccc(-c2nnn(-c3ccc(C(F)(F)F)cc3F)c2N)cc1` [Compound 11, N-{4-[5-Amino-1-(2-fluoro-4-trifluoromethyl-phenyl)-1H-[1,2,3]triazol-4-yl]-phenyl}-acetamide], 114.8 to 116.2 °C.
Still for that read-out and setting: for `COc1ccc(-c2nnn(-c3c(Cl)cc(Cl)cc3I)c2N)cc1` [Compound 22, 3-(2,4-Dichloro-6-iodo-phenyl)-5-(4-methoxy-phenyl)-3H-[1,2,3]triazol-4-ylamine] the value was 72.5 to 73.6 °C.
Take `COc1ccc(-n2nnc(-c3ccc(Cl)cc3F)c2N)cc1` [Compound 27, 5-(4-Chloro-2-fluoro-phenyl)-3-(4-methoxy-phenyl)-3H-[1,2,3]triazol-4-ylamine]: the melting point was in the range of 147.9 to 149.5 °C.
Regarding `COc1ccc(-c2nnn(-c3ccc(C(F)(F)F)cc3Cl)c2N)cc1` [Compound 3, 3-(2-Chloro-4-trifluoromethyl-phenyl)-5-(4-methoxy-phenyl)-3H-[1,2,3]triazol-4-ylamine], the melting point fell in the range of 130 to 130.7 °C. In addition, in data set [1], the “maximal modulation of the acetylcholine (control) response (Imax)” value turned out to be 563%, the EC50 (usually the concentration needed to bring the measured effect to its halfway point) came out at 1.7 µM and the “effect on acetylcholine-induced current amplitude” value is recorded as “robust increase”.
Compound `COc1ccc(Cl)cc1-c1nnn(-c2ccc(C(F)(F)F)cc2Cl)c1N` [Compound 2, 5-(5-Chloro-2-methoxy-phenyl)-3-(2-chloro-4-trifluoromethyl-phenyl)-3H-[1,2,3]triazol-4-ylamine] gave a melting point of 152.8 to 153.3 °C.
Still for that read-out and setting: the value for `COc1ccc(-n2nnc(-c3ccc(F)cc3F)c2N)cc1` [Compound 24, 5-(2,4-Difluoro-phenyl)-3-(4-methoxy-phenyl)-3H-[1,2,3]triazol-4-ylamine] was 152 to 156.5 °C; that for `COc1ccc(-n2nnc(-c3ccc(Cl)cc3Cl)c2N)cc1` [Compound 6, 5-(2,4-Dichloro-phenyl)-3-(4-methoxy-phenyl)-3H-[1,2,3]triazol-4-ylamine] was 154.6 to 163.9 °C; that for `Nc1c(-c2ccc(-c3nnco3)cc2)nnn1-c1ccc(C(F)(F)F)cc1F` [Compound 10, 3-(2-Fluoro-4-trifluoromethyl-phenyl)-5-(4-[1,3,4]oxadiazol-2-yl-phenyl)-3H-[1,2,3]triazol-4-ylamine] was 184.6 to 186.1 °C.
Same read-out and setting: for `Nc1ccc(-c2nnn(-c3ccc(C(F)(F)F)cc3F)c2N)cc1` [Compound 12, 5-(4-Amino-phenyl)-3-(2-fluoro-4-trifluoromethyl-phenyl)-3H-[1,2,3]triazol-4-ylamine] the value was 163.6 to 165 °C; for `COc1ccc(-c2nnn(-c3cc(C)on3)c2N)cc1` [Compound 7, 5-(4-Methoxy-phenyl)-3-(5-methyl-isoxazol-3-yl)-3H-[1,2,3]triazol-4-yl amine], 136.3 to 141.2 °C; for `COc1ccc(-c2nnn(-c3ccc(F)cc3Cl)c2N)cc1` [Compound 5, 3-(2-Chloro-4-fluoro-phenyl)-5-(4-methoxy-phenyl)-3H-[1,2,3]triazol-4-ylamine], 136.3 to 141.2 °C.
On the same count and under the same terms, the value for `Nc1c(-c2ccc(C(F)(F)F)cc2F)nnn1-c1ccc(O)cc1` [Compound 17, 4-[5-Amino-4-(2-fluoro-4-trifluoromethyl-phenyl)-[1,2,3]triazol-1-yl]-phenol] was 176.2 to 177.5 °C; that for `COc1ccc(-n2nnc(-c3ccc(F)cc3Cl)c2N)cc1` [Compound 25, 5-(2-Chloro-4-fluoro-phenyl)-3-(4-methoxy-phenyl)-3H-[1,2,3]triazol-4-ylamine] was 175 to 176.8 °C; that for `Nc1c(-c2ccc(Cl)cc2)nnn1-c1ccc(C(F)(F)F)cc1F` [Compound 18, 5-(4-Chloro-phenyl)-3-(2-fluoro-4-trifluoromethyl-phenyl)-3H-[1,2,3]triazol-4-ylamine] was 169.9 to 170.2 °C.
`COc1ccc(-n2nnc(-c3ccc(Cl)c(Cl)c3)c2N)cc1` [Compound 26, 5-(3,4-Dichloro-phenyl)-3-(4-methoxy-phenyl)-3H-[1,2,3]triazol-4-ylamine] showed a melting point of 189.9 to 191.3 °C.
With `Nc1c(-c2ccc(C(F)(F)F)cc2F)nnn1-c1ccc(S(N)(=O)=O)cc1` [Compound 13, 4-[5-Amino-4-(2-fluoro-4-trifluoromethyl-phenyl)-[1,2,3]triazol-1-yl]-benzenesulfonamide], the melting point lay in the range of 183.8 to 185.2 °C.
Regarding `COc1ccc(-c2nnn(-c3ccc(Cl)cc3Cl)c2N)cc1` [Compound 1, 3-(2,4-Dichloro-phenyl)-5-(4-methoxy-phenyl)-3H-[1,2,3]triazol-4-ylamine], the melting point is 149.2 to 150.7 °C. In addition, in data set [1], the “maximal modulation of the acetylcholine (control) response (Imax)” value stood at 561%, the EC50 turned out to be 4.9 µM and the “effect on acetylcholine-induced current amplitude” value is reported as “robust increase”.
